BindingDB's records for doi:10.1016/j.bmcl.2004.07.091 (Keio University, 2004)

What follows are compounds tested against T1, Beta-galactosidase (Bos taurus, UniProt Q58D55) (assay: Inhibition of Beta-galactosidase of bovine liver; no inhibition).
T1 sequence (Q58D55 whole entry): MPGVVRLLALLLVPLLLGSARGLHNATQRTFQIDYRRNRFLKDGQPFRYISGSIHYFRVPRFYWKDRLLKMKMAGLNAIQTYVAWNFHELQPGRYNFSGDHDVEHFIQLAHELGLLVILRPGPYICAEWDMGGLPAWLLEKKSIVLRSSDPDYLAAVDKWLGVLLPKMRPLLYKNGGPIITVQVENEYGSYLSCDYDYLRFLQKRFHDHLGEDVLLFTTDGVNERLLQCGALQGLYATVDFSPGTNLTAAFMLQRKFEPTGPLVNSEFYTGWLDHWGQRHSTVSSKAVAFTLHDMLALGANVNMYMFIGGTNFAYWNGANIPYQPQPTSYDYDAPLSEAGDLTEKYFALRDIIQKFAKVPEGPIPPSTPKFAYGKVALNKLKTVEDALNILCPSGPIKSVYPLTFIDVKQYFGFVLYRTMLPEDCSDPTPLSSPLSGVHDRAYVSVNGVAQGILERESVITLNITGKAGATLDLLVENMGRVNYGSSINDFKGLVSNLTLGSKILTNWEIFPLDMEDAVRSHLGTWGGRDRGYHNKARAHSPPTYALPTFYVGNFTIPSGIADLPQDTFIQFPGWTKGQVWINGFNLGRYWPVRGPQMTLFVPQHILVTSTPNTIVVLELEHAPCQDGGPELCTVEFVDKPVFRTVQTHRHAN

IC50, > 1000 µM:
N[C@H]1C[C@H](CO)[C@@H](O)[C@H](O)[C@H]1O
CO[C@@H]1CC2COC(C1O)[C@H]2NC1CC(CO)C(O)C(O)C1O (stereo partly drawn) [4-((3R,8S)-4-Hydroxy-3-methoxy-6-oxa-bicyclo[3.2.1]oct-8-ylamino)-6-hydroxymethyl-cyclohexane-1,2,3-triol]
CC(=O)NC1CC(CO)C(O)C(O)C1O (stereo unspecified) [N-(2,3,4-Trihydroxy-5-hydroxymethyl-cyclohexyl)-acetamide]

The compounds below were run against beta-glucosidase (Rattus norvegicus) (assay: Inhibition of Beta-glucosidase of rat intestine; no inhibition).

IC50, > 1000 µM:
CO[C@@H]1CC2COC(C1O)[C@H]2NC1CC(CO)C(O)C(O)C1O (stereo partly drawn) [4-((3R,8S)-4-Hydroxy-3-methoxy-6-oxa-bicyclo[3.2.1]oct-8-ylamino)-6-hydroxymethyl-cyclohexane-1,2,3-triol]
CCCCCCCCNC1CC(CO)C(O)C(O)C1O (stereo unspecified) [4-Hydroxymethyl-6-octylamino-cyclohexane-1,2,3-triol]
C=C1CC(NCCCCCCCC)C(O)C(O)C1O (stereo unspecified) [4-Methylene-6-octylamino-cyclohexane-1,2,3-triol]
